Data published in patent EP4610269A1, “UROKINASE PLASMINOGEN ACTIVATOR SURFACE RECEPTOR (UPAR) LIGANDS FOR DIAGNOSTIC OR THERAPEUTIC USE” (3B Pharmaceuticals GmbH, priority 2024, dated 2025).
pIC50: −log10 of the molar value. Like-named read-outs stand apart in the source and are kept apart here. *1 amine or outer side, *2 acyl side, *3 side chain or, on linkers, in order; H or OH if unused. Where a SMILES comes first, the peptide text is derived from it. Bridges are numbered along the chain shown (N, C = ends). Side-chain parts run from the residue outwards. [ ]: non-standard residue; d: D form. The star is where a group is joined. DOTA = O=C(O)CN1CCN(CC(=O)O)CCN(CC(=O)*)CCN(CC(=O)O)CC1; PEG12 = NCCOCCOCCOCCOCCOCCOCCOCCOCCOCCOCCOCCOCCC(=O)O; Phe(4-Cl) = N[C@@H](Cc1ccc(Cl)cc1)C(=O)O; Hyp = O=C(O)[C@@H]1C[C@@H](O)CN1; hArg = N=C(N)NCCCC[C@H](N)C(=O)O; Cit = NC(=O)NCCC[C@H](N)C(=O)O; Butoxycarbonyl = CCCCOC(=O)*; Nva = CCC[C@H](N)C(=O)O; Hexanoyl = CCCCCC(=O)*; Pentanoyl = CCCCC(=O)*; AEEA = NCCOCCOCC(=O)O; CO = O=C([*:1])[*:2]; NHBu = CCCCN*

How the values were obtained:
[1] = molecular target: T1, uPAR-expressing HEC-265 human endometrial adenocarcinoma cells (Homo sapiens, UniProt Q03405); experiment: Competitive FACS binding assay; details: pIC50 category of FACS binding
T1 construct: Cell surface uPAR-expressing HEC-265 human endometrial adenocarcinoma cells; host or cells: HEC-265
T1 sequence (Q03405 23-335): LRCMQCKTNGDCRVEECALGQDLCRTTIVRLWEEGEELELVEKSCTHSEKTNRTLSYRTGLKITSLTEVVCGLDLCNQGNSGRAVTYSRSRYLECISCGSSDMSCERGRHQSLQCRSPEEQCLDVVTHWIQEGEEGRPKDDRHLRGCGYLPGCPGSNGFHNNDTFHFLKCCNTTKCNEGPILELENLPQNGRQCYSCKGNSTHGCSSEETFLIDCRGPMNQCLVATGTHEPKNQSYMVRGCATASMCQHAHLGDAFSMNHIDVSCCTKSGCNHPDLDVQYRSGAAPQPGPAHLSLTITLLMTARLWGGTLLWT
Method in brief: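 HEC-265 cells incubated 1 h at 4 °C with 10 nM biotinylated uPAR peptide tracer plus increasing test compound, then stained with APC-streptavidin on ice. Median APC fluorescence by flow cytometry; 4PL fit gives pIC50.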

human uPAR (uPAR-Fc) = molecular target: T2, human uPAR (uPAR-Fc) (Homo sapiens, UniProt Q03405); experiment: Surface plasmon resonance (SPR) assay, single cycle kinetics; format: binding; details: pKD category for uPAR SPR activity assay, uPAR-Fc on Protein A-Chip, 25°C, read-out: pKD CAT (converted)
T2 construct: comprising amino acids Leu23-Arg303 according to UniProt entry Q03405.1; purchased R&D Systems 10378-UK-100
T2 sequence (Q03405 23-303): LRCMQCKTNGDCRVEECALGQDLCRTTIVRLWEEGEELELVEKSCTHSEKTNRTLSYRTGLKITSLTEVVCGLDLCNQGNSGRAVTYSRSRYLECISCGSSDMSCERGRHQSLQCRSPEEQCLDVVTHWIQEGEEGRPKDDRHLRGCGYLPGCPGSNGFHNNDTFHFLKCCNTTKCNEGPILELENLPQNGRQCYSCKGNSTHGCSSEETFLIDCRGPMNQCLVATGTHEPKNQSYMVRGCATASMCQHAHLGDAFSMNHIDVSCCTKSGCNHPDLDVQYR
Method in brief: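 uPAR-Fc (Leu23-Arg303 extracellular domains, human IgG1 Fc) captured on Protein A chip to ~2000 RU; single-cycle kinetics at 25°C in HEPES running buffer pH 7.4 with 0.1% DMSO. KD from double-referenced sensorgrams fitted to 1:1 Langmuir model, reported as pKD.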

[2] = Plasma stability assay (mouse plasma); format: in vitro ADME; details: mouse plasma (sodium citrate 3.7%), 37°C, LC-MS quantification, read-out: % intact compound remaining after 6h incubation Mouse plasma
Description: In order to determine the stability of selected compounds of the invention in human and mouse plasma, a plasma stability assay was carried out. Such plasma stability assay measures degradation of compounds of the present invention in blood plasma. This is an important characteristic of a compound as compounds, with the exception of pro-drugs, which rapidly degrade in plasma, generally show poor in vivo efficacy. […] The stability is sufficient for the diagnostic, therapeutic and theragnostic use of these compounds according to the present invention.
The plasma stability samples were prepared by spiking 50 µl plasma aliquots (all sodium citrate 3.7%) with 1 µl of a 0.5 mM compound stock solution in DMSO. After vortexing the samples were incubated in a Thermomixer at 37°C for 0 and 6 hours. After incubation the samples were stored on ice until further treatment. All samples were prepared in duplicates.
A suitable internal standard was added to each sample (1 µl of a 0.5 mM stock solution in DMSO). Protein precipitation was performed using two different methods depending on the compound conditions as indicated in Table 13. • A) 250 µl of acetonitrile containing 1% trifluoroacetic acid was added. After incubation at room temperature for 30 min the precipitate was separated by centrifugation and 150 µl of the supernatant was diluted with 150 µl of 1% aqueous formic acid. • B) 150 µl of a zinc sulphate precipitation agent containing 78% 0.1 M zinc sulphate and 22% acetonitrile was added. After incubation at room temperature for 30 min the precipitate was separated by centrifugation. To 100 µl of the supernatant 10 µl of 1% formic acid was added followed by further incubation at 60°C for 10 min to complete the formation of the zinc chelate, if the compound contains a free DOTA moiety.
The determination of the analyte in the clean sample solutions was performed on an Agilent 1290 UHPLC system coupled to an Agilent 6530 Q-TOF mass spectrometer. The chromatographic separation was carried out on a Phenomenex BioZen XB-C18 HPLC column (50 x 2 mm, 1.7 µm particle size).
Two different elution gradients were applied using a mixture of 0.1% formic acid in water as eluent A and acetonitrile as eluent B: • A) 2% B to 41% in 7 min, 800 µl/min, 40°C. • B) 5% B to 50% B in 6 min, 800 µL/min, 40°C.
Mass spectrometric detection was performed in positive ion ESI mode by scanning the mass range from m/z 50 to 3000 with a sampling rate of 2 / sec.
(§1) From the mass spectrometric raw data the ion currents for the double or triple charged monoisotopic signal was extracted for both, the compound and the internal standard.
(§2) Quantitation was performed by external matrix calibration with internal standard using the integrated analyte signals.
Additionally, recovery was determined by spiking a pure plasma sample that only contained the internal standard after treatment with a certain amount of the compound.
Carry-over was evaluated by analysis of a blank sample (20% acetonitrile) after the highest calibration sample.
(§3) The result is stated as "% intact compound remaining after 6 h incubation" and means that from the amount of material at the start of the experiment the stated percentage is detected as unchanged material at the end of the experiment by LC-MS quantification. Since all compounds are more than 50% intact after 6 h they are considered as stable enough for diagnostic and therapeutic applications. Table 13: Results of the plasma stability assay

[3] = molecular target: T3, Recombinant soluble human NEP (Homo sapiens, UniProt P08473); experiment: Proteolytic stability assay against NEP; format: in vitro ADME; details: recombinant soluble human NEP, human NEP 100 ng/mL, compound 10 µM, 37°C, LC-MS quantification, read-out: % intact compound remaining after 24h incubation
T3 construct: Recombinant soluble human NEP; purchased BioTechne, Wiesbaden, Germany
T3 sequence (P08473 52-750 limits assumed): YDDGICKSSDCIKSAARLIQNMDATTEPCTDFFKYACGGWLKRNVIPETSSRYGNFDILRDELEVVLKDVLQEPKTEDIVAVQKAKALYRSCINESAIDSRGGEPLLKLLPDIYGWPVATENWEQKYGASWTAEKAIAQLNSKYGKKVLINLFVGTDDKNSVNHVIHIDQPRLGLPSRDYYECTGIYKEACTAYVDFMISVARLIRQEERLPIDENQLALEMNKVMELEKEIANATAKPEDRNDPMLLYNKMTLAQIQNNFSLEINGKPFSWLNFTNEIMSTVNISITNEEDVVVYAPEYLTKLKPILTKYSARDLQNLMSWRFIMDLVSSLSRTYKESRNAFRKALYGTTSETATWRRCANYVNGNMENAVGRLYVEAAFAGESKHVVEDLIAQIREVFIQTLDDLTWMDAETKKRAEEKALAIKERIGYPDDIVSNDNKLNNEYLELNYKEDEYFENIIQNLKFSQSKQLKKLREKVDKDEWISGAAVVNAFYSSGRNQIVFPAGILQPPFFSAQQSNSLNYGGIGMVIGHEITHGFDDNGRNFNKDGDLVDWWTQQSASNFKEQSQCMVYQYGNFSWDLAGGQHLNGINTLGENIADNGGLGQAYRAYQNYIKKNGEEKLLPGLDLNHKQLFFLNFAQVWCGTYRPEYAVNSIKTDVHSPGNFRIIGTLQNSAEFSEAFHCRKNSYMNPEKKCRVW
Description: To assess the stability of compounds against NEP, the compounds were subjected to an in vitro assay based on the protocol described by Edelson et al. (Edelson, Makhlina et al. 2013).
Recombinant soluble human NEP (BioTechne, Wiesbaden, Germany) at a concentration of 100 ng/mL was mixed with the compound (10 µM) and a stable internal standard (10 µM) and incubated at 37°C. After several time points, samples were taken and analyzed with LC-MS.
The determination of the analyte in the clean sample solutions was performed on an Agilent 1290 UHPLC system coupled to an Agilent 6530 Q-TOF mass spectrometer. The chromatographic separation was carried out on a Phenomenex BioZen XB-C18 HPLC column (50 × 2 mm, 1.7 µm particle size) with gradient elution using a mixture of 0.1% formic acid in water as eluent A and acetonitrile as eluent B (2% B to 41% in 7 min, 800 µl/min, 40°C). Mass spectrometric detection was performed in positive ion ESI mode by scanning the mass range from m/z 50 to 3000 with a sampling rate of 2 / sec.
as §1, §2
The activity of NEP was examined using a commercially available chromogenic substrate of NEP.
as §3, with “24” for “6”, “14:” for “13:”, “NEP” for “plasma”

SMILES	pIC50 [1]	Kd (human uPAR (uPAR-Fc)) [nM]	remaining at 6 h, 9.8 µM [2] [%]	remaining at 24 h, 10 µM [3] [%]	Kd (human uPAR (uPAR-Fc); single cycle kinetics) [nM]
CCCCC(=O)N[C@H]1CSSC[C@@H](C(N)=O)NC(=O)[C@H](CCC)NC(=O)[C@H]([C@@H](C)CC)NC(=O)[C@@H]2C[C@@H](O)CN2C(=O)[C@@H]2CCCN2C(=O)[C@H](Cc2ccccc2)NC(=O)[C@H](Cc2ccc(O)cc2)NC(=O)[C@H](CCCCNC(=O)CCOCCOCCOCCOCCOCCOCCOCCOCCOCCOCCOCCOCCNC(=O)CN2CCN(CC(=O)O)CCN(CC(=O)O)CCN(CC(=O)O)CC2)NC(=O)[C@H](CCCNC(N)=O)NC1=O [UPAR-200, Pent-[Cys-Cit-Lys(DOTA-PEG12)-Tyr-Phe-Pro-Hyp-Ile-Nva-Cys]-NHz] (Pentanoyl-C[Cit]K([PEG12-DOTA])YFP[Hyp]I[Nva]C-NH2; disulfide 1-10)	≥ 8.00	< 1.58	> 95		
CCCCC(=O)N[C@H]1CSSC[C@@H](C(N)=O)NC(=O)[C@H](CCC)NC(=O)[C@H]([C@@H](C)CC)NC(=O)[C@@H]2C[C@@H](O)CN2C(=O)[C@@H]2CCCN2C(=O)[C@H](Cc2ccc(Cl)cc2)NC(=O)[C@H](Cc2ccc(O)cc2)NC(=O)[C@H](CCCCNC(=O)CN2CCN(CC(=O)O)CCN(CC(=O)O)CCN(CC(=O)O)CC2)NC(=O)[C@H](CCCNC(N)=O)NC1=O [UPAR-233, Pent-[Cys-Cit-Lys(DOTA)-Tyr-Pcf-Pro-Hyp-Ile-Nva-Cys]-NH2] (Pentanoyl-C[Cit]K(DOTA)Y[Phe(4-Cl)]P[Hyp]I[Nva]C-NH2; disulfide 1-10)	≥ 8.00	< 1.58		> 95	
CCCCC(=O)N[C@H]1CSSC[C@@H](C(N)=O)NC(=O)[C@H](CCC)NC(=O)[C@H]([C@@H](C)CC)NC(=O)[C@@H]2C[C@@H](O)CN2C(=O)[C@@H]2CCCN2C(=O)[C@H](Cc2ccccc2)NC(=O)[C@H](Cc2ccc(O)cc2)NC(=O)[C@H](CCCCNC(=O)CN2CCN(CC(=O)O)CCN(CC(=O)O)CCN(CC(=O)O)CC2)NC(=O)[C@H](CCCCNC(=N)N)NC1=O [UPAR-278, Pent-[Cys-Har-Lys(DOTA)-Tyr-Phe-Pro-Hyp-Ile-Nva-Cys]-NH2] (Pentanoyl-C[hArg]K(DOTA)YFP[Hyp]I[Nva]C-NH2; disulfide 1-10)	≥ 8.00	< 1.58	87		
CCCCOC(=O)N[C@H]1CSSC[C@@H](C(N)=O)NC(=O)[C@H](CCC)NC(=O)[C@H]([C@@H](C)CC)NC(=O)[C@@H]2C[C@@H](O)CN2C(=O)[C@@H]2CCCN2C(=O)[C@H](Cc2ccccc2)NC(=O)[C@H](Cc2ccc(O)cc2)NC(=O)[C@H](CCCCNC(=O)CN2CCN(CC(=O)O)CCN(CC(=O)O)CCN(CC(=O)O)CC2)NC(=O)[C@H](CCCNC(N)=O)NC1=O [UPAR-275, Butoc-[Cys-Cit-Lys(DOTA)-Tyr-Phe-Pro-Hyp-Ile-Nva-Cys]-NH2] (Butoxycarbonyl-C[Cit]K(DOTA)YFP[Hyp]I[Nva]C-NH2; disulfide 1-10)	≥ 8.00	< 1.58	70		
CC[C@H](C)[C@@H]1NC(=O)[C@@H](C)NC(=O)[C@@H]2CCCN2C(=O)[C@H](Cc2ccccc2)NC(=O)[C@H](Cc2ccc(O)cc2)NC(=O)[C@H](CCC(N)=O)NC(=O)[C@@H](C)NC(=O)[C@@H](NC(=O)[C@H](CC(C)C)NC(=O)COCCOCCNC(=O)CN2CCN(CC(=O)O)CCN(CC(=O)O)CCN(CC(=O)O)CC2)CSSC[C@@H](C(N)=O)NC(=O)[C@H](CC(C)C)NC1=O [UPAR-216, DOTA-O2Oc-Leu-[Cys-ala-Gln-Tyr-Phe-Pro-ala-Ile-Leu-Cys]-NH2] ({DOTA-AEEA}-LC[dA]QYFP[dA]ILC-NH2; disulfide 2-11)	≤ 6.90	> 100	84		

Other lines, results leading:

pIC50 [1]	Kd (human uPAR (uPAR-Fc)) [nM]	remaining at 6 h, 9.8 µM [2] [%]	remaining at 24 h, 10 µM [3] [%]	Kd (human uPAR (uPAR-Fc); single cycle kinetics) [nM]	SMILES
≥ 8.00		85		< 1.58	CC[C@H](C)[C@@H]1NC(=O)[C@@H](C)NC(=O)[C@@H]2CCCN2C(=O)[C@H](Cc2ccccc2)NC(=O)[C@H](Cc2ccc(O)cc2)NC(=O)[C@H](CCC(N)=O)NC(=O)[C@H](CCCNC(N)=O)NC(=O)[C@@H](NC(=O)[C@H](CC(C)C)NC(C)=O)CSSC[C@@H](C(N)=O)NC(=O)[C@H](CC(C)C)NC1=O [UPAR-418, Ac-Leu-[Cys-Cit-Gln-Tyr-Phe-Pro-ala-Ile-Leu-Cys]-NH2] (Ac-LC[Cit]QYFP[dA]ILC-NH2; disulfide 2-11)
≥ 8.00			89	< 1.58	CCCCNC(=O)N[C@H]1CSSC[C@@H](C(N)=O)NC(=O)[C@H](CCC)NC(=O)[C@H]([C@@H](C)CC)NC(=O)[C@@H]2C[C@@H](O)CN2C(=O)[C@@H]2CCCN2C(=O)[C@H](Cc2ccccc2)NC(=O)[C@H](Cc2ccc(O)cc2)NC(=O)[C@H](CCCCNC(=O)CN2CCN(CC(=O)O)CCN(CC(=O)O)CCN(CC(=O)O)CC2)NC(=O)[C@H](CCCNC(N)=O)NC1=O [UPAR-346, nBu-CAyl-[Cys-Cit-Lys(DOTA)-Tyr-Phe-Pro-Hyp-Ile-Nva-Cys]-NH2] ({NHBu-CO}-C[Cit]K(DOTA)YFP[Hyp]I[Nva]C-NH2; disulfide 1-10)
≥ 8.00		> 95		< 1.58	CCCCCC(=O)N[C@@H](CC(=O)O)C(=O)N[C@@H](CC(C)C)C(=O)N[C@H]1CSSC[C@@H](C(N)=O)NC(=O)[C@H](CC(C)C)NC(=O)[C@H]([C@@H](C)CC)NC(=O)[C@H](C)NC(=O)[C@@H]2CCCN2C(=O)[C@H](Cc2ccccc2)NC(=O)[C@H](Cc2ccc(O)cc2)NC(=O)[C@H](CCCCNC(=O)CN2CCN(CC(=O)O)CCN(CC(=O)O)CCN(CC(=O)O)CC2)NC(=O)[C@H](CCCNC(=N)N)NC1=O [UPAR-427, Hex-Asp-Leu-[Cys-Arg-Lys(DOTA)-Tyr-Phe-Pro-Ala-Ile-Leu-Cys]-NH2] (Hexanoyl-DLCRK(DOTA)YFPAILC-NH2; disulfide 3-12)
